Data: PubChem BioAssay (NCI)
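Tested at 5 concentrations; 48 h exposure; 96-well plates; endpoints linearly interpolated, else capped at highest concentration. Definition used: TGI = concentration required for complete inhibition of growth.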

What was measured:
Assay in all cases: NCI anticancer screen, dose series, 48 h
786-0 renal = tested on: 786-0 renal
A498 renal = tested on: A498 renal
A549 NSCLC = tested on: A549 NSCLC
ACHN renal = tested on: ACHN renal
BT-549 breast = tested on: BT-549 breast
CAKI-1 renal = tested on: CAKI-1 renal
CCRF-CEM leukemia = tested on: CCRF-CEM leukemia
COLO 205 colon = tested on: COLO 205 colon
DU-145 prostate = tested on: DU-145 prostate
EKVX NSCLC = tested on: EKVX NSCLC
HCC-2998 colon = tested on: HCC-2998 colon
HCT-116 colon = tested on: HCT-116 colon
HCT-15 colon = tested on: HCT-15 colon
HOP-62 NSCLC = tested on: HOP-62 NSCLC
HOP-92 NSCLC = tested on: HOP-92 NSCLC
HS 578T breast = tested on: HS 578T breast
HT29 colon = tested on: HT29 colon
IGROV1 ovarian = tested on: IGROV1 ovarian
K-562 leukemia = tested on: K-562 leukemia
KM12 colon = tested on: KM12 colon
LOX IMVI melanoma = tested on: LOX IMVI melanoma
M14 melanoma = tested on: M14 melanoma
MALME-3M melanoma = tested on: MALME-3M melanoma
MCF7 breast = tested on: MCF7 breast
MDA-MB-231 breast = tested on: MDA-MB-231 breast
MDA-MB-435 = tested on: MDA-MB-435
MDA-N = tested on: MDA-N
MOLT-4 leukemia = tested on: MOLT-4 leukemia
NCI-H226 lung = tested on: NCI-H226 lung
NCI-H23 lung = tested on: NCI-H23 lung
NCI-H460 lung = tested on: NCI-H460 lung
NCI-H522 lung = tested on: NCI-H522 lung
NCI/ADR-RES ovarian = tested on: NCI/ADR-RES ovarian
OVCAR-3 ovarian = tested on: OVCAR-3 ovarian
OVCAR-4 ovarian = tested on: OVCAR-4 ovarian
OVCAR-5 ovarian = tested on: OVCAR-5 ovarian
OVCAR-8 ovarian = tested on: OVCAR-8 ovarian
PC-3 prostate = tested on: PC-3 prostate
RPMI-8226 leukemia = tested on: RPMI-8226 leukemia
RXF 393 renal = tested on: RXF 393 renal
SF-268 CNS = tested on: SF-268 CNS
SF-295 CNS = tested on: SF-295 CNS
SF-539 CNS = tested on: SF-539 CNS
SK-MEL-2 melanoma = tested on: SK-MEL-2 melanoma
SK-MEL-28 melanoma = tested on: SK-MEL-28 melanoma
SK-MEL-5 melanoma = tested on: SK-MEL-5 melanoma
SK-OV-3 ovarian = tested on: SK-OV-3 ovarian
SN12C renal = tested on: SN12C renal
SNB-19 CNS = tested on: SNB-19 CNS
SNB-75 CNS = tested on: SNB-75 CNS
SR leukemia = tested on: SR leukemia
SW-620 colon = tested on: SW-620 colon
T-47D breast = tested on: T-47D breast
TK-10 renal = tested on: TK-10 renal
U251 CNS = tested on: U251 CNS
UACC-257 melanoma = tested on: UACC-257 melanoma
UACC-62 melanoma = tested on: UACC-62 melanoma
UO-31 renal = tested on: UO-31 renal
HL-60(TB) leukemia = tested on: HL-60(TB) leukemia

With `[N-]=[N+]=Nc1ccccc1C(=O)N1C(=O)c2ccccc2C(=O)N(C(=O)c2ccccc2N=[N+]=[N-])c2ccccc21` the TGI (786-0 renal) was over 100 µM, the TGI (A498 renal) was over 100 µM and the TGI (A549 NSCLC) was over 100 µM. The TGI (ACHN renal) was over 100 µM, the TGI (BT-549 breast) was over 100 µM and the TGI (CAKI-1 renal) was over 100 µM. The TGI (CCRF-CEM leukemia) was 84.6 µM, the TGI (COLO 205 colon) was over 100 µM and the TGI (DU-145 prostate) was over 100 µM. It also gave a TGI (EKVX NSCLC) of over 100 µM, a TGI (HCC-2998 colon) of over 100 µM and a TGI (HCT-116 colon) of over 100 µM. For the same molecule, the TGI (HCT-15 colon) was over 100 µM, the TGI (HOP-62 NSCLC) was 81 µM and the TGI (HOP-92 NSCLC) was 83.5 µM. The TGI (HS 578T breast) was over 100 µM, the TGI (HT29 colon) was over 100 µM and the TGI (IGROV1 ovarian) was over 100 µM. For the same molecule, the TGI (K-562 leukemia) was over 100 µM, the TGI (KM12 colon) was over 100 µM and the TGI (LOX IMVI melanoma) was over 100 µM. It also gave a TGI (M14 melanoma) of over 100 µM, a TGI (MALME-3M melanoma) of over 100 µM and a TGI (MCF7 breast) of over 100 µM. For the same molecule, the TGI (MDA-MB-231 breast) was over 100 µM, the TGI (MDA-MB-435) was over 100 µM and the TGI (MDA-N) was over 100 µM. For the same molecule, the TGI (MOLT-4 leukemia) was 50.7 µM, the TGI (NCI-H226 lung) was over 100 µM and the TGI (NCI-H23 lung) was over 100 µM. For the same molecule, the TGI (NCI-H460 lung) was over 100 µM, the TGI (NCI-H522 lung) was over 100 µM and the TGI (NCI/ADR-RES ovarian) was over 100 µM. The TGI (OVCAR-3 ovarian) was over 100 µM, the TGI (OVCAR-4 ovarian) was over 100 µM and the TGI (OVCAR-5 ovarian) was over 100 µM. For the same molecule, the TGI (OVCAR-8 ovarian) was over 100 µM, the TGI (PC-3 prostate) was over 100 µM and the TGI (RPMI-8226 leukemia) was over 100 µM. It also gave a TGI (RXF 393 renal) of 76.6 µM, a TGI (SF-268 CNS) of over 100 µM and a TGI (SF-295 CNS) of over 100 µM. It also gave a TGI (SF-539 CNS) of over 100 µM, a TGI (SK-MEL-2 melanoma) of over 100 µM and a TGI (SK-MEL-28 melanoma) of over 100 µM. The TGI (SK-MEL-5 melanoma) was over 100 µM, the TGI (SK-OV-3 ovarian) was over 100 µM and the TGI (SN12C renal) was over 100 µM. For the same molecule, the TGI (SNB-19 CNS) was over 100 µM, the TGI (SNB-75 CNS) was 64 µM and the TGI (SR leukemia) was over 100 µM. For the same molecule, the TGI (SW-620 colon) was over 100 µM, the TGI (T-47D breast) was over 100 µM and the TGI (TK-10 renal) was over 100 µM. For the same molecule, the TGI (U251 CNS) was over 100 µM, the TGI (UACC-257 melanoma) was over 100 µM and the TGI (UACC-62 melanoma) was over 100 µM. It also gave a TGI (UO-31 renal) of over 100 µM.
Molecule `CCOC(=O)P(=O)(O)c1ccc(N(C)Cc2ccccc2)cc1` has a TGI (786-0 renal) of over 100 µM, a TGI (A498 renal) of over 100 µM and a TGI (A549 NSCLC) of over 100 µM. For the same molecule, the TGI (ACHN renal) was over 100 µM, the TGI (BT-549 breast) was over 100 µM and the TGI (CAKI-1 renal) was over 100 µM. The TGI (CCRF-CEM leukemia) was over 100 µM, the TGI (COLO 205 colon) was over 100 µM and the TGI (DU-145 prostate) was over 100 µM. The TGI (EKVX NSCLC) was over 100 µM, the TGI (HCC-2998 colon) was over 100 µM and the TGI (HCT-116 colon) was over 100 µM. It also gave a TGI (HCT-15 colon) of over 100 µM, a TGI (HL-60(TB) leukemia) of over 100 µM and a TGI (HOP-62 NSCLC) of over 100 µM. The TGI (HOP-92 NSCLC) was over 100 µM, the TGI (HS 578T breast) was over 100 µM and the TGI (HT29 colon) was over 100 µM. For the same molecule, the TGI (IGROV1 ovarian) was over 100 µM, the TGI (K-562 leukemia) was over 100 µM and the TGI (KM12 colon) was over 100 µM. For the same molecule, the TGI (LOX IMVI melanoma) was over 100 µM, the TGI (M14 melanoma) was over 100 µM and the TGI (MALME-3M melanoma) was over 100 µM. For the same molecule, the TGI (MCF7 breast) was over 100 µM, the TGI (MDA-MB-231 breast) was over 100 µM and the TGI (MDA-MB-435) was over 100 µM. For the same molecule, the TGI (MDA-N) was over 100 µM, the TGI (MOLT-4 leukemia) was over 100 µM and the TGI (NCI-H226 lung) was over 100 µM. For the same molecule, the TGI (NCI-H23 lung) was over 100 µM, the TGI (NCI-H522 lung) was over 100 µM and the TGI (NCI/ADR-RES ovarian) was over 100 µM. It also gave a TGI (OVCAR-3 ovarian) of over 100 µM, a TGI (OVCAR-4 ovarian) of over 100 µM and a TGI (OVCAR-5 ovarian) of over 100 µM. The TGI (OVCAR-8 ovarian) was over 100 µM, the TGI (PC-3 prostate) was over 100 µM and the TGI (RPMI-8226 leukemia) was over 100 µM. It also gave a TGI (SF-268 CNS) of over 100 µM, a TGI (SF-295 CNS) of over 100 µM and a TGI (SF-539 CNS) of over 100 µM. It also gave a TGI (SK-MEL-2 melanoma) of over 100 µM, a TGI (SK-MEL-28 melanoma) of over 100 µM and a TGI (SK-MEL-5 melanoma) of over 100 µM. It also gave a TGI (SK-OV-3 ovarian) of over 100 µM, a TGI (SN12C renal) of over 100 µM and a TGI (SNB-19 CNS) of over 100 µM. It also gave a TGI (SNB-75 CNS) of over 100 µM, a TGI (SR leukemia) of over 100 µM and a TGI (SW-620 colon) of over 100 µM. For the same molecule, the TGI (T-47D breast) was over 100 µM, the TGI (TK-10 renal) was over 100 µM and the TGI (U251 CNS) was over 100 µM. For the same molecule, the TGI (UACC-257 melanoma) was over 100 µM, the TGI (UACC-62 melanoma) was over 100 µM and the TGI (UO-31 renal) was over 100 µM.
For `NC(N)=N/N=C/c1c(-c2ccc(Cl)cc2)nc2sccn12`, the TGI (786-0 renal) was 2.99 µM, the TGI (A498 renal) was 13.2 µM and the TGI (A549 NSCLC) was 3.15 µM. The TGI (ACHN renal) was 2.82 µM, the TGI (BT-549 breast) was 12 µM and the TGI (CAKI-1 renal) was 10.9 µM. The TGI (CCRF-CEM leukemia) was 4.23 µM, the TGI (COLO 205 colon) was 2.87 µM and the TGI (DU-145 prostate) was 13.1 µM. For the same molecule, the TGI (EKVX NSCLC) was 31.2 µM, the TGI (HCC-2998 colon) was 2.74 µM and the TGI (HCT-116 colon) was 2.95 µM. For the same molecule, the TGI (HCT-15 colon) was 6.36 µM, the TGI (HOP-62 NSCLC) was 3.56 µM and the TGI (HOP-92 NSCLC) was 5.67 µM. For the same molecule, the TGI (HS 578T breast) was 37.6 µM, the TGI (HT29 colon) was 3.23 µM and the TGI (IGROV1 ovarian) was 4.24 µM. For the same molecule, the TGI (K-562 leukemia) was 14.3 µM, the TGI (M14 melanoma) was 3.17 µM and the TGI (MALME-3M melanoma) was 4.95 µM. For the same molecule, the TGI (MCF7 breast) was 3.48 µM, the TGI (MDA-MB-231 breast) was 8.15 µM and the TGI (MDA-MB-435) was 3.43 µM. For the same molecule, the TGI (MDA-N) was 3.33 µM, the TGI (MOLT-4 leukemia) was 5.08 µM and the TGI (NCI-H226 lung) was 7.49 µM. It also gave a TGI (NCI-H23 lung) of 19.9 µM, a TGI (NCI-H460 lung) of 3.53 µM and a TGI (NCI-H522 lung) of 3.19 µM. For the same molecule, the TGI (NCI/ADR-RES ovarian) was 23.3 µM, the TGI (OVCAR-3 ovarian) was 3.6 µM and the TGI (OVCAR-4 ovarian) was 4.24 µM. It also gave a TGI (OVCAR-5 ovarian) of 7.03 µM, a TGI (PC-3 prostate) of 3.33 µM and a TGI (RPMI-8226 leukemia) of 7.04 µM. It also gave a TGI (RXF 393 renal) of 2.95 µM, a TGI (SF-268 CNS) of 3.72 µM and a TGI (SF-295 CNS) of 3.13 µM. It also gave a TGI (SF-539 CNS) of 3.36 µM, a TGI (SK-MEL-2 melanoma) of 4.31 µM and a TGI (SK-MEL-28 melanoma) of 3.44 µM. It also gave a TGI (SK-MEL-5 melanoma) of 3.19 µM, a TGI (SK-OV-3 ovarian) of 10.8 µM and a TGI (SN12C renal) of 3.9 µM. The TGI (SNB-19 CNS) was 20.7 µM, the TGI (SNB-75 CNS) was 3.61 µM and the TGI (SR leukemia) was 13.2 µM. The TGI (SW-620 colon) was 3.04 µM, the TGI (T-47D breast) was 3.22 µM and the TGI (TK-10 renal) was 6.53 µM. It also gave a TGI (U251 CNS) of 3.59 µM, a TGI (UACC-257 melanoma) of 3.62 µM and a TGI (UACC-62 melanoma) of 3.39 µM. It also gave a TGI (UO-31 renal) of 7.49 µM.
